Source: patent publication US20260250318A1, “COMPOSITIONS AND METHODS FOR CROSSING THE BLOOD BRAIN BARRIER” (VOYAGER THERAPEUTICS, INC., priority 2022, published 2026)

Tested on: brain
Assay: Maturation of TTM-001 capsid, NGS enrichment in brain of CD-1 Outbred mice
Format: in vivo
Settings: NGS fold-enrichment of TTM-001 matured AAV capsid variants in the brain of CD-1 Outbred mice; intravenous 1.0×10^12 VG/dose; 14 days in life; RNA; relative to non-matured TTM-001 control
Outline: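 Brain enrichment read by NGS after RNA extraction and RT-PCR, expressed as fold ratio over the matching parental capsid (TTM-001 or TTM-002). Libraries, mutated around loop IV positions 449/450–466, were injected intravenously (tail vein, 1.0×10^12 VG/dose) into three female CD-1 mice; brains harvested at 14 days.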

Sequence	Fold enrichment over TTM-001 [fold]
KTINGSGSPHSKIRLQQT	2.348
KTINGSRSPHIRAQNQQT (peptide inserted in AAV capsid)	2.356
KTINGSMSPHLYAQNQQT	2.354
KTINGSGSPHSTVWNQQT	2.196
KTINGSCSPHSLAQNQQT	2.099
KTINGSGSPHSKPARQQT	2.538
KTINGSGSPHCSAQNQQT	2.339
KTINGSGSPHSKCLSQQT	2.052
KTINGSGSPHLYGQNQQT	2.277
KTINGSGSPHSLVFNQQT	2.019
KTINGRISPHGKAQNQQT	2.492
KTINGSGSPHSFARNQQT	2.367
KTINGSGSPHSLLYNQQT	2.158
KTINGSGSPHSKARQQQT	2.244
KTINGHRSPHLKAQNQQT	2.320
KTINGSGSPHSKAFARQT	3.082
KTINGSVSPHFMAQNQQT (peptide inserted in AAV capsid)	2.287
KTINGSGSPHRWAQNQQT	2.350
KTINGSGSPHSKAFRPQT	2.499
KTINGSGSPHSSLWNQQT	3.179
KTINGSGSPHSLRYNQQT	2.462
KTINGSGSPHSKAQSVKT	2.464
KTINGSGSPHLVCQNQQT	2.493

Sequence	Fold enrichment over TTM-001 [fold]
KTINGSGSPHSKAQSHRT	2.084
KTINGSGSPHSKQSRQQT	2.156
KTINGSISPHFVAQNQQT	2.006
KTINGSGSPHSKPRLQQT	3.337
KTINGSGSPHSKAQSWRT	2.596
KTINGSGSPHSFLVNQQT	2.624
KTINGVASPHRKAQNQQT	2.261
KTINGSGSPHSKARTRQT	2.737
KTINGSGSPHSLCQNQQT	2.285
KTINGSGSPHRRSQNQQT	2.497
KTINGSGSPHWLAQNQQT	3.192
KTINGYRSPHSKAQNQQT	2.140
KTINGSGSPHSKMRPQQT	2.652
KTINGSWSPHMLAQNQQT (peptide inserted in AAV capsid)	2.106
KTINGSGSPHSRKLNQQT	3.646
KTINGSGSPHRRLQNQQT	2.030
KTINSARSPHSKAQNQQT	2.292
KTINGSGSPHSKRLRQQT	5.034
KTINGSRSPHYKAQNQQT (peptide inserted in AAV capsid)	2.879
KTINGSGSPHSKARYSQT	2.369
KTINGSGSPHSKAGCGQT	5.341
KTINGSVSPHYLAQNQQT (peptide inserted in AAV capsid)	2.203
KTINGSGSPHSKLRPQQT	2.060
